The values below come from patent publication US4294972A, “1,2-Disubstituted oxo triazolidine” (Beecham Group Limited, priority 1978, dated 1981).

Assay [1] concerns 5-hydroxytryptamine or histamine induced bronchoconstriction. The experiment in a line: Konzett-Rossler preparation: inhibition of 5-hydroxytryptamine or histamine induced bronchoconstriction, anaesthetised artificially respired guinea pig. Particulars: Cavia porcellus, iv. It counts as in vivo. As to the method:
1. The compounds were examined for their ability to inhibit 5-hydroxytryptamine or histamine induced bronchoconstriction in the anaesthetised, artificially respired guinea pig (Konzett-Rossler preparation). The compounds were administered intravenously.

Assay [2] deals with bronchoconstriction induced by an histamine aerosol. The assay is described as follows: Herxheimer test: protection of conscious guinea pigs against histamine aerosol induced bronchoconstriction. It counts as in vivo, guinea pig. The following applies: at 10 μg/ml after two minutes, mean of several experiments. As to the method:
2. The compounds were also examined for their ability to protect conscious guinea pigs against bronchoconstriction induced by an histamine aerosol (Herxheimer test). In these experiments the compounds were administered by aerosol. The results are the mean of several experiments.

Usually ED50 stands for the dose at which the effect has come halfway, by size or by number of responders. For `CCCCCCC(C)(O)CCn1c(=O)n(C)c(=S)n1CCCCCCCC(C)=O` (stereo not drawn) [Compound 9], the ED50 in assay [1] came out at 26.5 µg/kg. The “Herxheimer % increase in preconvulsive coughing time” value (“Herxheimer % increase” for short) in assay [2] is recorded as 52%.

In assay [1], `CCCCCCC(C)(O)CCn1c(=O)n(C)c(=O)n1CCCCCCCC(C)=O` (stereo not drawn) [Compound 1, 1-(8-oxononyl)-2-(3"-hydroxy-3"-methylnonyl)-4-methyl-1,2,4-triazolidine-3,5-dione] registered an ED50 of 2.7 µg/kg. The “Herxheimer % increase” value in assay [2] is on record as “Active”.

`CCCCCC(O)CCn1c(=O)n(C)c(=O)n1CCCCCCCC(C)=O` (stereo not drawn) [Compound 8] had an ED50 in assay [1] of 6.9 µg/kg. Moreover, in assay [2], the “Herxheimer % increase” value stood at 31%.
